Reference: patent publication US8609708B2 (Human BioMolecular Research Institute, priority 2003, dated 2013)
Like-named read-outs stand apart in the source and are kept apart here.

What was measured:
[1] = molecular target: Acetylcholine Binding Protein (Lymnaea stagnalis (Great pond snail) (Helix stagnalis), UniProt P58154); set-up: species or system Lymnaca stagnalis
CYP2A13 [2] = molecular target: T1, CYP2A13 (Homo sapiens (Human), UniProt Q16696); assay: Inhibition of human CYP2A13; conditions: for inhibition at 1 µM: human
T1 sequence (Q16696 whole entry): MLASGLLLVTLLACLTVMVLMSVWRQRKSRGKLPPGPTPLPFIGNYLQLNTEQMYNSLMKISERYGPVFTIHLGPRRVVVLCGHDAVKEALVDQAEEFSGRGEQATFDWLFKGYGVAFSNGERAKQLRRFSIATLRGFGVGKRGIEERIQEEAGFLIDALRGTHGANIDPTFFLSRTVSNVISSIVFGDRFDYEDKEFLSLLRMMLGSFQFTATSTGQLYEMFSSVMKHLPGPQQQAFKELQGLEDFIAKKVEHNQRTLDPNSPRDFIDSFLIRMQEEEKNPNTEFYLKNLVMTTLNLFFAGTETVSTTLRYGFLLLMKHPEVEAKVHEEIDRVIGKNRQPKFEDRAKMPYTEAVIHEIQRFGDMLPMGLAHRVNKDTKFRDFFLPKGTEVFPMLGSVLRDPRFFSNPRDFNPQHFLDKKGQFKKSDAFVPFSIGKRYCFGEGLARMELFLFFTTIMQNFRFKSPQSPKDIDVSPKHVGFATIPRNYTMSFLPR

mouse CYP2A5 = mouse CYP2A5 (Mus musculus (Mouse), UniProt P20852); assay: Inhibition of mouse CYP2A5; assay type: biochemical; conditions: read-out: IC50 mCYP2A5
mouse CYP2A5, sequence (P20852 whole entry): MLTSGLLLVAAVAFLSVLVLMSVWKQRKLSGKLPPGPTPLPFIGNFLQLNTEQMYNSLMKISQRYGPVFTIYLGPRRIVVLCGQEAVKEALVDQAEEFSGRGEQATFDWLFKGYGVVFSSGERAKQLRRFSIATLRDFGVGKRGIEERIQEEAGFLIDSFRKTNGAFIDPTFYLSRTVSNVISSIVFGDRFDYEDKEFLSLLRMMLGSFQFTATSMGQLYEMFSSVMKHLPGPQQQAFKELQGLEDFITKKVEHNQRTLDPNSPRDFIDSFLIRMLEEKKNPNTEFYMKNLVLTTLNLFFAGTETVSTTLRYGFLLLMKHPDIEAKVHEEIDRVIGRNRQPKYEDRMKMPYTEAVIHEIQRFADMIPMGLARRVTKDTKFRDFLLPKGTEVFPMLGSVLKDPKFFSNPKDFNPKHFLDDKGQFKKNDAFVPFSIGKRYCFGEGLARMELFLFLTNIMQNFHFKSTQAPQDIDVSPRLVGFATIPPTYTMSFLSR

CYP2A13 [3] = molecular target: T1, CYP2A13; assay: in vitro
human CYP2A6 [4] = molecular target: T2, human CYP2A6 (Homo sapiens (Human), UniProt P11509); conditions: human, pH 7.5
T2 sequence (P11509 whole entry): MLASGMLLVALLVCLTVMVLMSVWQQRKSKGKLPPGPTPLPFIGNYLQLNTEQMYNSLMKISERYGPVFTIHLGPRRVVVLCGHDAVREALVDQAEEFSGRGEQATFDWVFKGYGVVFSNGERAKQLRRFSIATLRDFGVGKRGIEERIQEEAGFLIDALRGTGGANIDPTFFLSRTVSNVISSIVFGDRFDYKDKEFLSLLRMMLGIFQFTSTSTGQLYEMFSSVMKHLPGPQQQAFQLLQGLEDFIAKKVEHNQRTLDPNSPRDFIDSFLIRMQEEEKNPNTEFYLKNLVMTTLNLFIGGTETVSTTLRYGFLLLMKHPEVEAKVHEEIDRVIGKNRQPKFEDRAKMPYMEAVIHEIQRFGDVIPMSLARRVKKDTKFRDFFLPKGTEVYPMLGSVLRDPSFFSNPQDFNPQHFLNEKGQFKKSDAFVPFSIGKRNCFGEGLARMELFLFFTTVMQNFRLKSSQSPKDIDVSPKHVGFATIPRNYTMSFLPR

human CYP2A6 [5] = molecular target: T2, human CYP2A6; assay: CYP2A6 mediated coumarin 7-hydroxylation inhibition
Microsomal Human CYP2A6 = Microsomal Human CYP2A6 (Homo sapiens (Human), UniProt P11509); assay: Microsomal human CYP2A6-mediated nicotine oxidase activity
Microsomal Human CYP2A6, sequence (P11509 whole entry): as above
Description: For each determination, cold microsomes (of predetermined CYP2A6 activity) was added to the NADPH-generating system containing 50 mM Tris (pH=7.4) and DETAPAC (to prevent metal-catalyzed autooxidation) and inhibitor. Because rat liver cytosol has little CYP2A6 activity and high levels of aldehyde oxidase, 0.2 mg/incubation was used to quantitatively convert the nicotine iminium ion to cotinine. […] For initial evaluation of a large number of samples, [^3]H-nicotine was used in a TLC/radiometric format. […] Quantification of scrapped bands was by scintillation counting.

CYP3A4 = CYP3A4 (Homo sapiens (Human), UniProt P08684); assay: in vitro
CYP3A4, sequence (P08684 whole entry): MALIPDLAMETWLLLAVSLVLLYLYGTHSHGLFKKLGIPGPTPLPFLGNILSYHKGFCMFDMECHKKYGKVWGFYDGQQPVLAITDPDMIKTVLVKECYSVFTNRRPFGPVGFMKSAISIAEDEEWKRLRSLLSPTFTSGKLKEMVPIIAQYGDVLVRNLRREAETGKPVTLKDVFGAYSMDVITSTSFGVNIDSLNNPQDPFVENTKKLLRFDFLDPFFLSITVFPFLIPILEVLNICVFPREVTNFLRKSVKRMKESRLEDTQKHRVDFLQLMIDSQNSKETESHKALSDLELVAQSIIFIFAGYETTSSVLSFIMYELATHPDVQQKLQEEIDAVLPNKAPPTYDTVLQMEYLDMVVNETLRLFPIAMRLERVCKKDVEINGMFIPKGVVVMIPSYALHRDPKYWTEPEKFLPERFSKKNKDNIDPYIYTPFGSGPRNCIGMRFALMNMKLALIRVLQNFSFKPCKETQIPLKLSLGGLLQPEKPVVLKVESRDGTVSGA

human CYP2A6 [6] = molecular target: T2, human CYP2A6; assay: biochemical
[7] = molecular target: Ach binding protein (AchBP) (Lymnaea stagnalis (Great pond snail) (Helix stagnalis), UniProt P58154)
Ach binding protein (AchBP), sequence (P58154 20-229 limits assumed): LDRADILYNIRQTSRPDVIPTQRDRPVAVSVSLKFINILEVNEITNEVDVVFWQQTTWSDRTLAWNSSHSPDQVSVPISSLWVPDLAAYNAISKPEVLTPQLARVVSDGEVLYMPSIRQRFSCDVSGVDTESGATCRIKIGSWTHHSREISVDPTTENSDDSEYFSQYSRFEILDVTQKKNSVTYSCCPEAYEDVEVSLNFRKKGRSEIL
Description: To examine the degree of interaction with the nicotinic acetylcholine receptor, we examined the binding interaction of the synthetic inhibitors with the Ach binding protein (AchBP) from the fresh water snail (Table 3).

[8] = Human liver microsome stability assay; conditions: human, human liver microsomes, pH 7.4
[9] = Mouse liver microsome stability assay; conditions: mouse liver microsomes; for MLM t1/2: 40 μM test compound
Description: The residue was reconstituted in methanol (200 μL), centrifuged at 13,000 rpm for 5 min and the supernatant was analyzed by high-performance liquid chromatography with an Axxi-chrom (straight-phase) silica column (4.6 mm×250 mm, 5 μm) or with a Supelco (reverse-phase) HS F5 pentafluorophenyl column (4.6 mm×250 mm, 5 μm).

P450 2A6dH = P450 2A6dH (Homo sapiens (Human), UniProt P11509, INS494HHHH); assay: Difference spectra of test compounds with N-terminal truncated CYP2A6; conditions: for λmax / λmin: difference spectrum; for binding type: difference spectrum with truncated CYP2A6
P450 2A6dH, sequence (P11509 other isoform, or with tags, fused parts or gaps 1-28 replaced by MAKKTS/ins HHHH behind 494): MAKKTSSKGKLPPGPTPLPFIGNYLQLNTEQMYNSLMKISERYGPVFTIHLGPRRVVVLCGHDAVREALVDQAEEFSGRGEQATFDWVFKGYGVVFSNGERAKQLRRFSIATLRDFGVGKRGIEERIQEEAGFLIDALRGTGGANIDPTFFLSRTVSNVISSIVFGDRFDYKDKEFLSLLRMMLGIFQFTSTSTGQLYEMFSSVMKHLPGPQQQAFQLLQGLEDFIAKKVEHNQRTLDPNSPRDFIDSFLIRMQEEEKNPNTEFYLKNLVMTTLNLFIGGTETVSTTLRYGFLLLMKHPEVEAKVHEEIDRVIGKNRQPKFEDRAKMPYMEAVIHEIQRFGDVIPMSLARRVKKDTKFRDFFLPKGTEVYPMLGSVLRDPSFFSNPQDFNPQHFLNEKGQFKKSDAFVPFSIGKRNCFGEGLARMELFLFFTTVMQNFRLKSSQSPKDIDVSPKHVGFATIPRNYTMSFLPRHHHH
Description: Subsequently, test compound (in 100% ethanol, 10 μM) was added to both the cuvettes. The maximal ethanol concentration used was 2%. The difference spectra were obtained after the system reached equilibrium (3 min). All spectra were recorded at 25° C.

CYP2C9 = CYP2C9 (Homo sapiens (Human), UniProt P11712); assay: CYP2C9 Vivid blue substrate O-dealkylation inhibition; assay type: biochemical; conditions: Table 4; unit inferred; read-out: 2C9 IC50 ± SD
CYP2C9, sequence (P11712 whole entry): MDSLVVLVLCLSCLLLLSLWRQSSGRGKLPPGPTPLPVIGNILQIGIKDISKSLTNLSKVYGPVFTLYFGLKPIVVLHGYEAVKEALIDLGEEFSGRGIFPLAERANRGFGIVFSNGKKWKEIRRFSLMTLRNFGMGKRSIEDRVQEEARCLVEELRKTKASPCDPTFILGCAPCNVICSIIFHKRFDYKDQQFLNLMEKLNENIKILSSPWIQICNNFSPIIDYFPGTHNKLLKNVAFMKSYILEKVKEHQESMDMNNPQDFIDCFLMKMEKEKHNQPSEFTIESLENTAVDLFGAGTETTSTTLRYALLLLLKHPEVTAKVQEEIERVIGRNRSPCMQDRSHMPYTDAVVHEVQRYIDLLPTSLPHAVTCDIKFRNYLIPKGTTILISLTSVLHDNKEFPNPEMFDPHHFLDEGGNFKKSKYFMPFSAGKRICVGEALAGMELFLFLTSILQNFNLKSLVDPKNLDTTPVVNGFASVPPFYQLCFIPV

CYP2E1 = CYP2E1 (Homo sapiens (Human), UniProt P05181); assay: CYP2E1 Vivid blue substrate O-dealkylation inhibition; assay type: biochemical; conditions: Table 4; unit inferred; read-out: 2E1 IC50 ± SD
CYP2C19 = CYP2C19 (Homo sapiens (Human), UniProt P33261); assay: CYP2C19 Vivid blue substrate O-dealkylation inhibition; assay type: biochemical; conditions: Table 4; unit inferred; read-out: 2C19 IC50 ± SD
CYP2C19, sequence (P33261 whole entry): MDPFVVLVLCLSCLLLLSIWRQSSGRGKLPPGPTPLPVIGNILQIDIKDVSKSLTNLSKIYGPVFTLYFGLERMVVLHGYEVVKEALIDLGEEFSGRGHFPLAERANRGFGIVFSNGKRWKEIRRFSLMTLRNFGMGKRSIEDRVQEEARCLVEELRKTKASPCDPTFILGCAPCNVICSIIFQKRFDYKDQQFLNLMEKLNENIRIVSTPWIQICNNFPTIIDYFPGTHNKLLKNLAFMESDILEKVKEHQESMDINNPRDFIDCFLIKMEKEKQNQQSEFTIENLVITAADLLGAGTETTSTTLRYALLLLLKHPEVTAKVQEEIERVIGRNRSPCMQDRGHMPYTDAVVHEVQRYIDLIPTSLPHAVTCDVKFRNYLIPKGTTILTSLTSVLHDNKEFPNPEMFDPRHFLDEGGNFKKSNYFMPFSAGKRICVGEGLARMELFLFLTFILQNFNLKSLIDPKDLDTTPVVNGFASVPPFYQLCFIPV

CYP2D6 = CYP2D6 (Homo sapiens (Human), UniProt P10635); assay: CYP2D6 Vivid blue substrate O-dealkylation inhibition; assay type: biochemical; conditions: Table 4; unit inferred; read-out: 2D6 IC50 ± SD
CYP2D6, sequence (P10635 whole entry): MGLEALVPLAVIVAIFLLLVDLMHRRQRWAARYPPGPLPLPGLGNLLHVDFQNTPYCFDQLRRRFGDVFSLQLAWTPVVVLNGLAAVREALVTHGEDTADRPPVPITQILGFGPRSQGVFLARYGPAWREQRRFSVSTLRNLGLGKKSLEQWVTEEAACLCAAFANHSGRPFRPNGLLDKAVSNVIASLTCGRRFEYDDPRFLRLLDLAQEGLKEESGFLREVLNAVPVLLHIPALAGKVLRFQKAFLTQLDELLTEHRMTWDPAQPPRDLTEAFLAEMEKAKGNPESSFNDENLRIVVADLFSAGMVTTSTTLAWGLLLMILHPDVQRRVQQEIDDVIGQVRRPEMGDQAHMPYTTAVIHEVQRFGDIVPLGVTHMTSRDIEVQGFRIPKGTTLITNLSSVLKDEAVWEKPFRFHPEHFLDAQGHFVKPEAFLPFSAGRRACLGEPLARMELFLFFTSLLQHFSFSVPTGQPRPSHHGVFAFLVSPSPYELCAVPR

CYP2B6 = CYP2B6 (Homo sapiens (Human), UniProt P20813); assay: CYP2B6 Vivid blue substrate O-dealkylation inhibition; assay type: biochemical; conditions: Table 4; unit inferred; read-out: 2B6 IC50 ± SD
CYP2B6, sequence (P20813 whole entry): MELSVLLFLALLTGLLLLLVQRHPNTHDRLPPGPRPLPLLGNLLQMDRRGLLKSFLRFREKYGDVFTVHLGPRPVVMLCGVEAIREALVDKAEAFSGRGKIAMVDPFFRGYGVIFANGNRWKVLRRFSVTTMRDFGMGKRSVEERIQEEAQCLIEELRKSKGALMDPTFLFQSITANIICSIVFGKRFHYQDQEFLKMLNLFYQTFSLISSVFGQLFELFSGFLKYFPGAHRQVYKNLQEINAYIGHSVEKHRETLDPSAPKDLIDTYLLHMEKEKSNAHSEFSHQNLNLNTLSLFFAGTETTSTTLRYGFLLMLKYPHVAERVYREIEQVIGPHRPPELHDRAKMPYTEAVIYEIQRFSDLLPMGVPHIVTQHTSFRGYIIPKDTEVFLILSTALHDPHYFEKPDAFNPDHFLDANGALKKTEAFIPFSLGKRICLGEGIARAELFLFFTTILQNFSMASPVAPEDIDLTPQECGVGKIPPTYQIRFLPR

[10] = molecular target: CYP2C9 relative to CYP2A6 (Homo sapiens (Human), UniProt P11712); assay: CYP2C9 Vivid blue substrate O-dealkylation inhibition; assay type: biochemical; conditions: human, recombinant CYP2C9 BACULOSOMES, pH 8, probe Vivid blue substrate (10 μM), O-dealkylation; read-out: 2C9/2A6 selectivity ratio (IC50 CYPX/IC50 CYP2A6)
[11] = molecular target: CYP2E1 relative to CYP2A6 (Homo sapiens (Human), UniProt P05181); assay: CYP2E1 Vivid blue substrate O-dealkylation inhibition; assay type: biochemical; conditions: human, recombinant CYP2E1 BACULOSOMES, pH 8, probe Vivid blue substrate (10 μM), O-dealkylation; read-out: 2E1/2A6 selectivity ratio (IC50 CYPX/IC50 CYP2A6)
[12] = molecular target: CYP3A4 relative to CYP2A6 (Homo sapiens (Human), UniProt P08684); assay: in vitro; conditions: human, pH 7.5
CYP3A4 relative to CYP2A6, sequence (P08684 whole entry): as the sequence (P08684 whole entry) above

[13] = molecular target: CYP2C19 relative to CYP2A6 (Homo sapiens (Human), UniProt P33261); assay: CYP2C19 Vivid blue substrate O-dealkylation inhibition; assay type: biochemical; conditions: human, recombinant CYP2C19 BACULOSOMES, pH 8, probe Vivid blue substrate (10 μM), O-dealkylation; read-out: 2C19/2A6 selectivity ratio (IC50 CYPX/IC50 CYP2A6)
[14] = molecular target: CYP2D6 relative to CYP2A6 (Homo sapiens (Human), UniProt P10635); assay: CYP2D6 Vivid blue substrate O-dealkylation inhibition; assay type: biochemical; conditions: human, recombinant CYP2D6 BACULOSOMES, pH 8, probe Vivid blue substrate (10 μM), O-dealkylation; read-out: 2D6/2A6 selectivity ratio (IC50 CYPX/IC50 CYP2A6)
CYP2D6 relative to CYP2A6, sequence (P10635 whole entry): as the sequence (P10635 whole entry) above

[15] = molecular target: CYP2B6 relative to CYP2A6 (Homo sapiens (Human), UniProt P20813); assay: CYP2B6 Vivid blue substrate O-dealkylation inhibition; assay type: biochemical; conditions: human, recombinant CYP2B6 BACULOSOMES, pH 8, probe Vivid blue substrate (5 μM), O-dealkylation; read-out: 2B6/2A6 selectivity ratio (IC50 CYPX/IC50 CYP2A6)
CYP2B6 relative to CYP2A6, sequence (P20813 whole entry): as the sequence (P20813 whole entry) above

[16] = read-out: CYP2A6 IC50, coumarin 7-hydroxylation
[17] = read-out: 2A6 IC50 ± SD, Table 4, unit not given (same data in Table 1 in μM)

Acetylcholine Binding Protein, sequence (P58154 20-229 limits assumed): as the sequence (P58154 20-229 limits assumed) above

**Q.** With `NCc1ccc(-c2cccnc2)o1` [(5-(pyridin-3-yl)furan-2-yl)methanamine] as the compound, how does the “% of Control” value [1] read?
**A.** 20%

**Q.** For `Cc1ccsc1-c1cccnc1` [TD-II-025], which IC50 (CYP2A13 [2]) is on record?
**A.** ~1 µM

**Q.** What about the inhibition at 1 µM (CYP2A13 [2]) of the same compound?
**A.** 51%

**Q.** And the IC50 (mouse CYP2A5)?
**A.** 0.3 µM

**Q.** For `O/N=C/c1ccc(-c2cccnc2)o1` [TD-II-065 ESP trans isomer], which inhibition at 1 µM (CYP2A13 [3]) is on record?
**A.** 41%

**Q.** And the IC50 (human CYP2A6 [4])?
**A.** 4.24 ± 0.49 µM

**Q.** With `CCC1CCC(c2cccnc2)O1` (stereo not shown) [Compound 44] as the compound, how does the IC50 (human CYP2A6 [5]; [16]) read?
**A.** 13.6 ± 3.48 µM

**Q.** What about the IC50 (Microsomal Human CYP2A6) of the same compound?
**A.** 0.02 ± 0.02 µM

**Q.** And the “inhibition of microsomal nicotine oxidase (in words)” value (Microsomal Human CYP2A6)?
**A.** quite potent

**Q.** For `O/N=C/c1ccc(-c2cccnc2)o1` [Compound 39], which IC50 (CYP3A4; human, pH 7.5) is on record?
**A.** > 400 µM

**Q.** And the IC50 (human CYP2A6 [6])?
**A.** 9.75 ± 0.91 µM

**Q.** Which inhibition at 1 µM (CYP2A13 [3]) does the source give for `c1cncc(-c2ccsc2)c1` [TD-I-145] here?
**A.** 12%

**Q.** What about the IC50 (human CYP2A6 [4]) of the same compound?
**A.** 1.37 ± 0.23 µM

**Q.** What about the IC50 (mouse CYP2A5) of the same compound?
**A.** 0.8 µM

**Q.** With `CNCC#Cc1cccnc1` [TD-IV-091 41] as the compound, how does the inhibition at 1 µM (CYP2A13 [3]) read?
**A.** 2%

**Q.** Which results are given for `OCC1CCC(c2cccnc2)O1` (stereo not shown) [Compound 69]?
**A.** IC50 (human CYP2A6 [5]; [16]): 61.4 ± 17.7 µM; binding to the AchBP (in words) ([7]; fluorescence quenching): non-binders; AchBP ([7]; intrinsic fluorescence quenching, 20 nM AchBP): −

**Q.** Which results are given for `Cc1ccsc1-c1cccnc1` [Compound 4]?
**A.** half-life at 40 μM [8]: 32 min; half-life at 40 μM ([9]; mouse, pH 7.4): 41 min

**Q.** Which inhibition at 1 µM (CYP2A13 [2]) does the source give for `CC(=O)SCc1ccc(-c2cccnc2)o1` [TD-V-099] here?
**A.** 13%

**Q.** What about the IC50 (human CYP2A6 [6]) of the same compound?
**A.** 1.8 ± 0.3 µM

**Q.** With `CNCc1ccc(-c2cccnc2)s1` [Compound 1b] as the compound, how does the IC50 (human CYP2A6 [5]; [17]) read?
**A.** 1.1 ± 0.13 µM

**Q.** What about the λmax (P450 2A6dH) of the same compound?
**A.** 430 nm

**Q.** What about the λmin (P450 2A6dH) of the same compound?
**A.** 410 nm

**Q.** And the binding type (P450 2A6dH)?
**A.** Type II

**Q.** What about the IC50 (CYP2C9) of the same compound?
**A.** 67.7 ± 3.7 µM

**Q.** What about the IC50 (CYP2E1) of the same compound?
**A.** > 400 µM

**Q.** And the IC50 (CYP3A4)?
**A.** > 400 µM

**Q.** What about the half-life at 40 μM [8] of the same compound?
**A.** 96 min

**Q.** And the IC50 (CYP2C19)?
**A.** 59.8 ± 6.5 µM

**Q.** What about the IC50 (CYP2D6) of the same compound?
**A.** 113 ± 19 µM

**Q.** What about the “MLM t1/2” value [9] of the same compound?
**A.** Stable^a

**Q.** What about the IC50 (CYP2B6) of the same compound?
**A.** > 400 µM

**Q.** Which IC50 (human CYP2A6 [5]; [17]) does the source give for `CNCc1ccc(-c2cccnc2)o1` [Compound 2b] here?
**A.** 1.6 ± 0.34 µM

**Q.** What about the λmax (P450 2A6dH) of the same compound?
**A.** 431 nm

**Q.** And the λmin (P450 2A6dH)?
**A.** 411 nm

**Q.** What about the binding type (P450 2A6dH) of the same compound?
**A.** Type II

**Q.** And the IC50 (CYP2C9)?
**A.** 76.1 ± 9.1 µM

**Q.** What about the selectivity ratio at 40 min [10] of the same compound?
**A.** 48

**Q.** What about the selectivity ratio at 40 min [11] of the same compound?
**A.** > 250

**Q.** And the IC50 (CYP2E1)?
**A.** > 400 µM

**Q.** What about the selectivity ratio at 30 min [12] of the same compound?
**A.** > 250

**Q.** And the IC50 (CYP3A4)?
**A.** > 400 µM

**Q.** What about the half-life at 40 μM [8] of the same compound?
**A.** 66 min

**Q.** What about the IC50 (CYP2C19) of the same compound?
**A.** 30.6 ± 4.1 µM

**Q.** What about the selectivity ratio at 40 min [13] of the same compound?
**A.** 19

**Q.** What about the selectivity ratio at 40 min [14] of the same compound?
**A.** 57

**Q.** And the IC50 (CYP2D6)?
**A.** 90.6 ± 7.8 µM

**Q.** And the “MLM t1/2” value [9]?
**A.** Stable^a

**Q.** And the IC50 (CYP2B6)?
**A.** 358 ± 22 µM

**Q.** What about the selectivity ratio at 40 min [15] of the same compound?
**A.** 224
